In patent US20230066011A1, “PYRROLOPYRIMIDINE DERIVATIVE, AND PHARMACEUTICAL COMPOSITION FOR PREVENTING OR TREATING PROTEIN KINASE-RELATED DISEASE COMPRISING SAME AS ACTIVE INGREDIENT” (VORONOI CO., LTD., priority 2019, published 2023):

Legend:
Type in all cases: biochemical
[1] = target: LRRK2 (Homo sapiens, UniProt Q5S007); experiment: LRRK2 enzyme inhibition, ADP-Glo kinase assay; design: purchased Invitrogen PR8604B; conditions: ATP 10 μM
Procedure: To evaluate an inhibitory activity of the compound according to the present invention against LRRK2, LRRK2 (G2019S), DYRK1, CLK1, and TTK kinases, experiments were performed as follows.
Each of the Example compounds was reacted with a purified human LRRK2 (Invitrogen #PR8604B) enzyme to evaluate an ability to inhibit an enzyme using a method as described below. A composition of 40 mM Tris-HCl (pH 7.4), 20 mM MgCl2, 0.5 mg/mL BSA, and 50 μM DTT was used as a reaction buffer, and all reactions of test substances were performed in the reaction buffer. Each of the compounds was diluted […] from a 10 mM DMSO stock using a serial dilution method, and enzyme activities were measured at final compound concentrations of 50, 10, 2, 0.4, 0.08, 0.016, 0.0032, 0.00064, 0.000128, 0.0000256, 0.00000512, and 0.000001024 μM. In the test, purified ATP (10 μM) and an enzyme substrate (0.2 μg) were reacted with a human LRRK2 (25 ng) enzyme at 25° C. for 2 hours, and the enzyme activities were determined using an in vitro ADP-Glo™ kinase assay (Promega). An enzyme-activity reaction solution, an ADP-Glo reaction solution, and an enzyme-ability detection solution were reacted at a ratio of 2:2:1 to measure a degree of inhibition of the enzyme activity with luminescence. The degree of inhibition of the enzyme activity according to the treatment concentration of each of the compounds was calculated based on the fluorescence of the enzyme activity of the solvent control which was not treated with the compound. In this case, the concentration of each of the compounds inhibiting 50% of the enzyme activity was determined to be an IC50 (nM) value, and calculated using Prism (Version 5.01; GraphPad) software.

[2] = target: T1, human GST-DYRK1A (Homo sapiens, UniProt Q13627); experiment: GST-DYRK1A enzyme inhibition, ADP-Glo kinase assay; conditions: ATP 10 μM, GST-DYRK1A full length, read-out: DYRK1 IC50
T1 construct: purified human GST-DYRK1A (full length, Thermo Scientifics) enzyme; purchased Thermo Scientifics
How it was run: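 Full-length human GST-DYRK1A (10 ng) with 10 μM ATP and specific substrate in 40 mM Tris-HCl pH 7.4, 20 mM MgCl2, 0.5 mg/mL BSA, 50 μM DTT, 1 h at 25 °C. ADP formation read by ADP-Glo luminescence relative to solvent control; IC50 from three data sets.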

[3] = target: T2, human GST-CLK1 (Homo sapiens, UniProt P49759); experiment: GST-CLK1 enzyme inhibition, ADP-Glo kinase assay; conditions: ATP 10 μM, GST-CLK1 129-end
T2 construct: purified human GST-CLK1 (129-end, SignalChem) enzyme; purchased SignalChem
How it was run: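 Human GST-CLK1 (129-end, 3 ng) reacted with substrate and 10 μM ATP for 1 h at 25° C in 40 mM Tris-HCl pH 7.4, 20 mM MgCl2, 0.5 mg/mL BSA, 50 μM DTT. ADP-Glo luminescence was normalised to solvent control; IC50 (nM) from 3 data sets.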

T2 sequence (P49759 129-484 limits assumed): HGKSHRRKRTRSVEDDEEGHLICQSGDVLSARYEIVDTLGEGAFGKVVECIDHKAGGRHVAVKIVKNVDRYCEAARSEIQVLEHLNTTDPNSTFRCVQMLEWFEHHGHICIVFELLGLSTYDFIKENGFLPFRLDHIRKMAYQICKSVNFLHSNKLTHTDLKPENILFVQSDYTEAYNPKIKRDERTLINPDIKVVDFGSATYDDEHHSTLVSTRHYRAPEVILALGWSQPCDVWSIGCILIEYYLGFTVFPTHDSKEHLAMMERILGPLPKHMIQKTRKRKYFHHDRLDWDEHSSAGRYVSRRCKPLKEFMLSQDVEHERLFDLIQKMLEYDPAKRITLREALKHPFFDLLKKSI
Chain of LRRK2 (Q5S007 970-2527 limits assumed): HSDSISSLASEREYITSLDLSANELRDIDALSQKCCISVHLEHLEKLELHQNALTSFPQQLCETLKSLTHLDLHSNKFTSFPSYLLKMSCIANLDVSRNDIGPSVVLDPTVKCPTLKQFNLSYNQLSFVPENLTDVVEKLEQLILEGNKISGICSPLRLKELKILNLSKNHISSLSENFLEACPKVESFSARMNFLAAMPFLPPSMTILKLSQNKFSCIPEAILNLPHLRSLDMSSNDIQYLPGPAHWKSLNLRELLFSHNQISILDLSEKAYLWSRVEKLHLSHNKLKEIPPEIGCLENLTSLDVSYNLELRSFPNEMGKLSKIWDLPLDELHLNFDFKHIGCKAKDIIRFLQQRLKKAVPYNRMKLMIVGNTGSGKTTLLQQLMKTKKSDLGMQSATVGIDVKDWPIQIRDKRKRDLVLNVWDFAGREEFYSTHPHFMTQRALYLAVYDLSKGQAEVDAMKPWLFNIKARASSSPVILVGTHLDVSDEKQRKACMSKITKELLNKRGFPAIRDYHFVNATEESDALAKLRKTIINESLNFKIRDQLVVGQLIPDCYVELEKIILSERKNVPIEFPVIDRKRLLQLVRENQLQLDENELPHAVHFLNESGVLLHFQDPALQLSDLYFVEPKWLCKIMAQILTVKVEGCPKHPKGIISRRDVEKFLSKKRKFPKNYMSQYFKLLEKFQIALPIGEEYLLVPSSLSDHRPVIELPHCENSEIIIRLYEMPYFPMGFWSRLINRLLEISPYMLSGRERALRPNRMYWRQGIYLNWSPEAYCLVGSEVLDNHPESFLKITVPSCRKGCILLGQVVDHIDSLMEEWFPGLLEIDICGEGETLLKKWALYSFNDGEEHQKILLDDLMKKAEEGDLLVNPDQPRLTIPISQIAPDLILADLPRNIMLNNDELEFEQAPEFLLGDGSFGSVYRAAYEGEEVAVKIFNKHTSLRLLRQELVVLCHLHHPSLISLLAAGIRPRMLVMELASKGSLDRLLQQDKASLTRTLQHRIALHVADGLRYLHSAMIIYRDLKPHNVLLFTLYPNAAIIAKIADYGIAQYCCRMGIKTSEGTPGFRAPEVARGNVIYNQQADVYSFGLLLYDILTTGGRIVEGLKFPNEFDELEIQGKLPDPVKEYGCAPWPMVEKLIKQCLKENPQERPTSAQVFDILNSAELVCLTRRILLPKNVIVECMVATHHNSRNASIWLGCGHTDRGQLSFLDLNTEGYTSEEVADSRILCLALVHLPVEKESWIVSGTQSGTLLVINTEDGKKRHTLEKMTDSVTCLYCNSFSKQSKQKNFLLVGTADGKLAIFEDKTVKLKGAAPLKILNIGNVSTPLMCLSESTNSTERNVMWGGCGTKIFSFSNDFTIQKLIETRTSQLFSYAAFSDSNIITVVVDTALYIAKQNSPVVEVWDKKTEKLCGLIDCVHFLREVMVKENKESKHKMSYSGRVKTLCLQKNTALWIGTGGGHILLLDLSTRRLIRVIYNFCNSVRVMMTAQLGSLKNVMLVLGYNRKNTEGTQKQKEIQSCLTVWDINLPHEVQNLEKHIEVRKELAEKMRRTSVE

Structure (SMILES) | IC50 [1] [nM] | IC50 [2] [nM] | IC50 [3] [nM]
COc1cc(S(=O)(=O)N2CCC(N3CCOCC3)CC2)ccc1Nc1nc(NCC2CCC2)c2c(C#N)c[nH]c2n1 [Example 94, 4-((cyclobutylmethyl)amino)-2-((2-methoxy-4-((4-morpholinopiperidin-1-yl)sulfonyl)phenyl)amino)-7H-pyrrolo[2,3-d]pyrimidine-5-carbonitrile] | < 100 | 301 to 1000 | 301 to 1000
COc1cc(S(C)(=O)=O)ccc1Nc1nc(NC2CCOCC2)c2c(C#N)c[nH]c2n1 [Example 109, 2-((2-methoxy-4-(methylsulfonyl)phenyl)amino)-4-((tetrahydro-2H-pyran-4-yl)amino)-7H-pyrrolo[2,3-d]pyrimidine-5-carbonitrile] | < 100 | 301 to 1000 | 301 to 1000
COCC(C)(C)Nc1nc(Nc2ccc(S(C)(=O)=O)cc2OC)nc2[nH]cc(C#N)c12 [Example 111, 4-((1-methoxy-2-methylpropan-2-yl)amino)-2-((2-methoxy-4-(methylsulfonyl)phenyl)amino)-7H-pyrrolo[2,3-d]pyrimdiine-5-carobnitrile] | < 100 | 301 to 1000 | 301 to 1000
COc1cc(S(C)(=O)=O)ccc1Nc1nc(NCC2CCC2)c2c(C#N)c[nH]c2n1 [Example 112, 4-((cyclobutylmethyl)amino)-2-((2-methoxy-4-(methylsulfonyl)phenyl)amino)-7H-pyrrolo[2,3-d]pyrimidine-5-carbonitrile] | < 100 | 301 to 1000 | 301 to 1000
COc1cc(S(C)(=O)=O)ccc1Nc1nc(NCC2CCCC2)c2c(C#N)c[nH]c2n1 [Example 113, 4-((cyclopentylmethyl)amino)-2-((2-methoxy-4-(methylsulfonyl)phenyl)amino)-7H-pyrrolo[2,3-d]pyrimidine-5-carbonitrile] | < 100 | 301 to 1000 | 301 to 1000
COCC(C)(C)Nc1nc(Nc2ccc(C(=O)N3CCOCC3)c3c2OCCO3)nc2[nH]cc(C#N)c12 [Example 131, 4-((1-methoxy-2-methylpropan-2-yl)amino)-2-((8-(morpholine-4-carbonyl)-2,3-dihydrobenzo[b][1,4]dioxin-5-yl)amino)-7H-pyrrolo[2,3-d]pyrimidine-5-carbonitrile] | < 100 | 301 to 1000 | < 100
N#Cc1c[nH]c2nc(Nc3ccc(C(=O)N4CCOCC4)c4c3OCCO4)nc(NCC3CCC3)c12 [Example 132, 4-((cyclobutylmethyl)amino)-2-((8-(morpholine-4-carbonyl)-2,3-dihydrobenzo[b][1,4]dioxin-5-yl)amino)-7H-pyrrolo[2,3-d]pyrimidine-5-carbonitrile] | < 100 | 301 to 1000 | 301 to 1000
CC(C)Nc1nc(Nc2ccc(C(=O)N3CCC(N4CCOCC4)CC3)c3c2OCCO3)nc2[nH]cc(C#N)c12 [Example 140, 4-(isopropylamino)-2-((8-(4-morpholinopiperidine-1-carbonyl)-2,3-dihydrobenzo[b][1,4]dioxin-5-yl)amino)-7H-pyrrolo[2,3-d]pyrimidine-5-carbonitrile] | < 100 | 301 to 1000 | < 100
CC(C)CNc1nc(Nc2ccc(C(=O)N3CCOCC3)c3c2OCCO3)nc2[nH]cc(C(F)(F)F)c12 [Example 169, (8-((4-(isobutylamino)-5-(trifluoromethyl)-7H-pyrrolo[2,3-d]pyrimidin-2-yl)amino)-2,3-dihydrobenzo[b][1,4]dioxin-5-yl)(morpholino)methanone] | < 100 | 301 to 1000 | 301 to 1000
CC[C@@H](C)Nc1nc(Nc2ccc(S(C)(=O)=O)cc2OC)nc2[nH]cc(C(F)(F)F)c12 [Example 173, (R)-N^4-(sec-butyl)-N^2-(2-methoxy-4-(methyslulfonyl)phenyl)-5-(trifluoromethyl)-7H-pyrrolo[2,3-d]pyrimidine-2,4-diamine] | < 100 | 301 to 1000 | 301 to 1000
